The values below come from patent US20130296391A1, “PLANT DISEASE CONTROLLING COMPOSITION AND METHOD FOR CONTROLLING PLANT DISEASE” (SUMITOMO CHEMICAL COMPANY, LIMITED, priority 2010, published 2013).

The test system of the test is gray mold fungus (Botrytis cinerea). The test is described as follows: cucumber leaf disk test against gray mold fungus, preventive value. The conditions noted are these: single compound, 15° C., four days. Type of test: in vivo. The protocol:
True leaf of cucumber was punched out with cork borer to 13 mm in diameter to prepare a leaf disk. In 24 well microwell plate that was dispensed with 1 ml 0:8% water agar, the leaf disk was placed such that the upper side of the leaf was in an upward direction. Thereto was added 20 micro liter a testing solution prepared by mixing a dimethyl sulfoxide solution of the present amide compound and a dimethyl sulfoxide solution of benomyl or carbendazim to a predetermined concentration to treat the leaf disk.
After confirming that the testing medical solution was dried, conidium of gray mold fungus (Botrytis cinerea) was suspended into potato dextrose broth (DIFCO) in a density of about 10^5 conidia/mL and was then subjected to a spray inoculation. After leaving to stand the leaf disk in a growth chamber set up at 15° C. for four days, an onset area on each leaf was measured and then calculated an onset area rate (hereinafter, referred to as an onset area rate belonging to treated group).
The same operation was carried out with 20 micro liter water instead of 20 micro liter the testing medicine solution to calculate an onset area rate (hereinafter, referred to an onset area rate belonging to non-treated group).
A preventive value was calculated from the above onset area rate belonging to treated group and the onset area rate belonging to non-treated group by the following equation:
Preventive value(%)=100×(A−B)/A
A: an onset area rate belonging to non-treated group
B: an onset area rate belonging to treated group
onset area rate=(onset area of the leaf disk)/(the total area of the leaf disk)
For comparison, the same operations as described in Test Examples 1 to 4 were carried out except that the testing medicine solution was substituted with predetermined concentration of a dimethyl sulfoxide solution of benomyl or carbendazim, so as to calculate a preventive value.

The mark [1] stands for this setting: treatment concentration 0.5 ppm.
The mark [2] stands for this setting: treatment concentration 5.0 ppm.

On to `CCCCNC(=O)n1c(NC(=O)OC)nc2ccccc21` [benomyl], for which the “preventive value (%)” value by setting is: under setting [1], 47.5%; under setting [2], 56.5%.

`COC(=O)Nc1nc2ccccc2[nH]1` [carbendazim]: the “preventive value (%)” value reads like this: under setting [1], 45%; under setting [2], 55.5%.

In the case of `CNC(=O)C(OC)c1ccccc1COc1cc(C)ccc1C` (stereo not drawn) [the present amide compound], the “preventive value (%)” value (treatment concentration 1.0 ppm) was determined as 46% and the “preventive value (%)” value (treatment concentration 2.5 ppm) amounted to 55.5%.
